# Measured values as given in patent publication US10993983B2, “Cyclic peptide epitopes and small-molecule mimics for inducing autophagy” (TRUSTEES OF TUFTS COLLEGE, priority 2016, dated 2021).
# Marks after values point to notes of the source that are not given here.
# System: p62
# Assay: p62 degradation assay (p62/actin immunoblot);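 on Activity (μM) 100, p62/actin assay activity: HeLa cells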;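 on Activity (μM) 30, p62/actin assay activity: HeLa cells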;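 on Activity (μM) 50, p62/actin assay activity: HeLa cells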
# Format: cell-based
# Parameters: key: −: activity not reported; 0: decreased vs. WT; +: similar to WT; ++: modest increase vs. WT; +++: significant increase vs. WT
# Conditions: 30 μM; Table 7, control compound T25; first symbol
# Method: (§1) Cells were treated with peptide in OPTI-MEM (Thermo Scientific) acidified with 0.15% (v/v) 6N HCl for 3 hour. Cells were rinsed with Dulbecco's phosphate buffered saline (PBS) and lysed in lysis buffer (20 mM HEPES, 150 mM NaCl, 1 mM EDTA, 1% Triton X-100, protease inhibitor cocktail (Roche) on ice for 1 hour. Cell lysates were centrifuged at 16,000 g for 10 min at 4° C. and analyzed by SDS-PAGE and transferred to PVDF membranes. The membranes were blocked 5% non-fat dry milk (NFDM) in PBST (PBS+0.05% Tween-20) for 1 hour, then incubated overnight at 4° C. with primary antibody in 5% NFDM in PBST. The blots were washed with PBST and incubated with HRP-conjugated secondary antibodies diluted in 5% NFDM in PBST for 1 hour at room temperature. Membranes were washed with PBST and visualized with SuperSignal West Pico Chemiluminescent Substrate (Thermo Scientific). Semi-quantitative results were obtained by noting the lowest concentration at which both p62 degradation and LC3-I to LC3-II conversion were observed.
# (§2) Compounds 1-10 were evaluated using the assays described in Examples 4 and 5. Activity for each compound was measured in the p62 degradation assay and the LC3 marker assay as described herein. The activity at each concentration of peptide is given as, for example, (0/+) where 0 would be the p62/actin assay activity and + would be the LC3 assay activity.
row,Sequence,"Activity (μM) 30, p62/actin assay activity"
1,VCNATCHIWH [Compound 31],0/0
2,VCNATCHIWH [Compound 30],0/0
3,VCNATCHIWH [Compound 27],0/0

# Same assay, conditions: 30 μM; Table 8, control compound T25; first symbol
row,Sequence,"Activity (μM) 30, p62/actin assay activity"
1,VCNACFHIWH [Compound 70],0/0
2,VCNATCHIWH [Compound 30],0/0
3,VCNACFHIWH [Compound 71],0

# Same assay, conditions: 50 μM; Table 7, control compound T25; first symbol
row,Sequence,"Activity (μM) 50, p62/actin assay activity"
1,VCNATCHIWH [Compound 31],0/0
2,VCNATCHIWH [Compound 30],0/0
3,VCNATCHIWH [Compound 27],0/0

# Same assay, conditions: 50 μM; Table 8, control compound T25; first symbol
row,Sequence,"Activity (μM) 50, p62/actin assay activity"
1,VCNACFHIWH [Compound 70],0
2,VCNATCHIWH [Compound 30],0/0
3,VCNATCHIWH [Compound 50],++
4,VCNATCHIWH [Compound 36],0/0
5,VCNACFHIWH [Compound 71],0
6,VCNATCHIWH [Compound 51],+++/+++
7,VCNATCHIWH [Compound 48],+++/+++
8,VCNATCHIWH [Compound 49],+++/+++
9,VCNACFHIWH [Compound 53],+++

# Same assay, conditions: 100 μM; Table 7, control compound T25; first symbol
row,Sequence,"Activity (μM) 100, p62/actin assay activity"
1,VCNATCHIWH [Compound 31],0/0
2,VCNATCHIWH [Compound 30],+
3,VCNATCHIWH [Compound 27],0/0

# Same assay, conditions: 100 μM; Table 8, control compound T25; first symbol
row,Sequence,"Activity (μM) 100, p62/actin assay activity"
1,VCNATCHIWH [Compound 30],0/0
2,VCNATCHIWH [Compound 50],++
3,VCNATCHIWH [Compound 36],0/0
4,VCNATCHIWH [Compound 51],+++/+++
5,VCNATCHIWH [Compound 48],+++/+++
6,VCNATCHIWH [Compound 49],+++/+++
7,VCNACFHIWH [Compound 53],+++

# Same assay, conditions: Table 8; 10 μM marked * (footnote: data taken at 20 instead of 30 μM); first symbol
row,Sequence,"Activity (μM) 10, starred cell, p62/actin assay activity"
1,VCNACFHIWH [Compound 70],0/0*
2,VCNATCHIWH [Compound 30],0/0*
3,VCNACFHIWH [Compound 71],0

# System: LC3
# Assay: LC3 marker assay (LC3-I to LC3-II conversion immunoblot);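 on Activity (μM) 100, LC3 assay activity: HeLa cells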;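 on Activity (μM) 30, LC3 assay activity: HeLa cells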;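 on Activity (μM) 50, LC3 assay activity: HeLa cells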
# Format: cell-based
# Parameters: key: −: activity not reported; 0: decreased vs. WT; +: similar to WT; ++: modest increase vs. WT; +++: significant increase vs. WT
# Conditions: 30 μM; Table 7, control compound T25; second symbol
# Method: as §1, §2
row,Sequence,"Activity (μM) 30, LC3 assay activity"
1,VCNATCHIWH [Compound 31],0/0
2,VCNATCHIWH [Compound 30],0/0
3,VCNATCHIWH [Compound 27],0/0

# Same assay, conditions: 30 μM; Table 8, control compound T25; second symbol
row,Sequence,"Activity (μM) 30, LC3 assay activity"
1,VCNACFHIWH [Compound 70],0/0
2,VCNATCHIWH [Compound 30],0/0
3,VCNACFHIWH [Compound 71],++

# Same assay, conditions: 50 μM; Table 7, control compound T25; second symbol
row,Sequence,"Activity (μM) 50, LC3 assay activity"
1,VCNATCHIWH [Compound 31],0/0
2,VCNATCHIWH [Compound 30],0/0
3,VCNATCHIWH [Compound 27],0/0

# Same assay, conditions: 50 μM; Table 8, control compound T25; second symbol
row,Sequence,"Activity (μM) 50, LC3 assay activity"
1,VCNACFHIWH [Compound 70],+
2,VCNATCHIWH [Compound 30],0/0
3,VCNATCHIWH [Compound 50],+++
4,VCNATCHIWH [Compound 36],0/0
5,VCNACFHIWH [Compound 71],+++
6,VCNATCHIWH [Compound 51],+++/+++
7,VCNATCHIWH [Compound 48],+++/+++
8,VCNATCHIWH [Compound 49],+++/+++
9,VCNACFHIWH [Compound 53],++

# Same assay, conditions: 100 μM; Table 7, control compound T25; second symbol
row,Sequence,"Activity (μM) 100, LC3 assay activity"
1,VCNATCHIWH [Compound 31],0/0
2,VCNATCHIWH [Compound 30],0
3,VCNATCHIWH [Compound 27],0/0

# Same assay, conditions: 100 μM; Table 8, control compound T25; second symbol
row,Sequence,"Activity (μM) 100, LC3 assay activity"
1,VCNATCHIWH [Compound 30],0/0
2,VCNATCHIWH [Compound 50],+++
3,VCNATCHIWH [Compound 36],0/0
4,VCNATCHIWH [Compound 51],+++/+++
5,VCNATCHIWH [Compound 48],+++/+++
6,VCNATCHIWH [Compound 49],+++/+++
7,VCNACFHIWH [Compound 53],++

# Same assay, conditions: Table 8; 10 μM marked * (footnote: data taken at 20 instead of 30 μM); second symbol
row,Sequence,"Activity (μM) 10, starred cell, LC3 assay activity"
1,VCNACFHIWH [Compound 70],0/0*
2,VCNATCHIWH [Compound 30],0/0*
3,VCNACFHIWH [Compound 71],+
